# What was measured:
# Type in all cases: in vivo, Male Wistar rats
# remnant kidney (RK) rats [1] = experiment: Plasma uric acid in remnant kidney rats
# Method: Male Wistar rats (295-340 g) were used to produce rats with remnant kidney (RK) as follows. […] Rats were then assigned to one of four treatment groups: Group 1, RK control rats (n=7); Group 2, RK+febuxostat (Fx) rats (n=8); Group 3, RK+oxonic acid (OA) rats (n=6); and Group 4, RK+OA+Fx (n=10). Oxonic acid (OA) (Sigma-Aldrich, St Louis Mo., USA), administered at 750 mg/kg body weight daily by oral gavage, was given starting the day after the ⅚ nephrectomy. Beginning immediately following the surgery, febuxostat was administered in drinking water at 30 mg/L (3-4 mg/kg/day), whereas the respective controls received only drinking water (with 3.5 mg/L of NaCl added to keep an equivalent salt concentration to the Fx-containing water). All groups were treated for four weeks. Body weight (beginning just before surgery) and food and water intakes were measured daily. Systolic blood pressure, measured in conscious rats by a tail cuff sphygmomanometer, and plasma uric acid (UA) levels were measured at just before surgery (namely, at baseline) and at the end of the four weeks. Proteinuria was measured at baseline and at the end of two and four weeks. A renal micropuncture procedure along with systemic blood pressure monitoring under pentobarbital anesthesia was performed at the end of four weeks followed by morphologic evaluation of the renal preglomerular microvasculature. Food and water intake were determined daily. Systolic blood pressure (SBP) was measured by a tail-cuff sphygmomanometer using an automated system (XBP-100; Kent Scientific Co, Torrington, Conn., USA) in conscious animals. […] Plasma uric acid was quantified using a commercial kit (Diagnostic Chemicals Ltd, Charlottetown, PEI, Canada). Proteinuria was determined by turbidimetry by the method of trichloroacetic acid as described in Henry R J et al., “Turbidimetric determination of proteins with sulfosalicylic and tricholoroacetic acids”, Proc Soc Exp Biol Med 92:748-751 (1956), the contents of which are herein incorporated by reference.
# remnant kidney (RK) rats [2] = experiment: Systolic blood pressure by tail cuff in conscious remnant kidney rats; details: all four groups, after four weeks; corroborated by mean arterial pressure under anesthesia
# Method: (§1) Male Wistar rats (295-340 g) were used to produce rats with remnant kidney (RK) as follows. […] Rats were then assigned to one of four treatment groups: Group 1, RK control rats (n=7); Group 2, RK+febuxostat (Fx) rats (n=8); Group 3, RK+oxonic acid (OA) rats (n=6); and Group 4, RK+OA+Fx (n=10). Oxonic acid (OA) (Sigma-Aldrich, St Louis Mo., USA), administered at 750 mg/kg body weight daily by oral gavage, was given starting the day after the ⅚ nephrectomy. […] Body weight (beginning just before surgery) and food and water intakes were measured daily. Systolic blood pressure, measured in conscious rats by a tail cuff sphygmomanometer, and plasma uric acid (UA) levels were measured at just before surgery (namely, at baseline) and at the end of the four weeks. Proteinuria was measured at baseline and at the end of two and four weeks. […] Food and water intake were determined daily. Systolic blood pressure (SBP) was measured by a tail-cuff sphygmomanometer using an automated system (XBP-100; Kent Scientific Co, Torrington, Conn., USA) in conscious animals. […] Plasma uric acid was quantified using a commercial kit (Diagnostic Chemicals Ltd, Charlottetown, PEI, Canada). […]
# remnant kidney (RK) rats [3] = experiment: Proteinuria in remnant kidney rats
# Method: as §1
compound,measurement,setting,value
"Cc1nc(-c2ccc(OCC(C)C)c(C#N)c2)sc1C(=O)O [febuxostat, 2-[3-cyano-4-(2-methylpropoxy)phenyl]-4-methylthiazole-5-carboxylic acid]",Plasma uric acid as % of the value measured in the RK control rats,"remnant kidney (RK) rats [1]; RK rats receiving febuxostat, end of four weeks, difference not statistically significant",approximately 63%
same,Plasma uric acid in OA-treated rats (in words),remnant kidney (RK) rats [1]; febuxostat added to OA-treated RK rats,prevented the'rise of uric acid levels
same,Systolic blood pressure (in words),remnant kidney (RK) rats [2],developed systemic hypertension to approximately the same degree
same,Rise of urinary protein excretion (in words),remnant kidney (RK) rats [3]; RK rats with and without hyperuricemia,prevented the rise of urinary protein excretion
same,"Urinary protein excretion, lower than the values in the respective control groups","remnant kidney (RK) rats [3]; RK+Fx and RK+OA+Fx rats, end of Week 4",75-80%

# From patent publication US20130143886A1, “METHODS FOR PRESERVING AND/OR INCREASING RENAL FUNCTION USING XANTHINE OXIDOREDUCTASE INHIBITORS” (priority 2006, published 2013)
